Measurements as given in paper PMC6941952, “A homogeneous bioluminescent immunoassay to probe cellular signaling pathway regulation” (Communications Biology, 2020).
Several values for one entry are separate records, joined by “and”; a condition that tells them apart may be missing. Identical values can stand only once.

Assays:
total NF-κB p65 = test: NanoBiT cell-based immunoassay, total p65 in MCF-7 cells; parameters: species or system human; conditions: for level of p65: MCF-7 cells, TNFα 50 ng per ml 10 min, IKK16 10 µM 1 h; for Total p65, Average: background subtracted, average of replicates; for Total p65, Raw data / Total p65, Subtract reagent background: single replicates
Method: (§1) Prior to NanoBiT Cell-Based Immunoassay, 50,000 cells were seeded in 160 µl of complete growth media per well of a 96-well plate and incubated overnight. The cells were checked under microscope and it was determined that 50,000 cells per well in 96-well plate is under 90% confluency for all cells tested. If necessary, the cell culture media were replaced with serum-free media after the cells were stably adherent on the plate and incubated overnight. To treat cells with activators or inhibitors, medium was changed to 30 µl of medium containing inhibitors. If activation of a specific pathway is needed, the cells were stimulated with 10 µl of medium containing activators. To lyse the cells, 10 µl of lysis buffer containing 0.1% digitonin diluted in 1X immunoassay buffer with protease and phosphatase inhibitors was added and the plates were mixed vigorously for 20 min. Then, 50 µl of an antibody mix containing two primary antibodies against the target protein and NanoBiT detecting antibodies (0.3 µl each per well), diluted in 1X immunoassay buffer was added to the lysates. The plates were incubated at 23 °C for 90 min, followed by the addition of 25 µl of Nano-Glo® reagent consisting of Nano-Glo® Luciferase Assay Substrate mixed with 1X immunoassay buffer. Luminescence was measured using a plate-reading luminometer.
(§2) Single dose or dose response inhibitor treatments were performed prior to activation of the pathways as follows. For IκBα, the cells were treated in 30 µl medium with IKK16 or MG132 for 60 min before the addition of 10 µl of DMEM containing appropriate concentration of TNFα. To measure phosphorylation of AKT or STAT3, the corresponding NanoBiT immunoassays were developed with MCF-7 or A431 cells, respectively, according the same scheme used to develop the IκBα assay using the primary antibodies for AKT and STAT3 described in the reagents section. For the AKT assay, MCF-7 cells were incubated overnight in phenol-red free DMEM medium (Gibco #21063-029) without serum. Treatment with LY294002 was performed in 30 µl medium and cells were incubated for 60 min before the addition of 1 µM Insulin. To measure STAT3 phosphorylation, A431 cells were incubated overnight in DMEM medium without serum. […] After addition of the stimulators, the cells were incubated for additional times as follows. IκBα phosphorylation and degradation analyses required both time courses and single time points as described in figures. […] The NanoBiT immunoassay protocol was followed as described above.
(§3) All 96-well assay plates were read using a GloMax® 96 Microplate Luminometer from Promega. The instrument was set to 0.5 s integration time. In order to obtain net change of signal, the reagent background values (signal from the well containing all reagent except primary antibodies) were subtracted from the sample values. To plot and analyze the data, Microsoft Excel and GraphPad Prism® Software were used. IC50 values were determined by using a nonlinear regression fit to a sigmoidal dose response (variable slope).

NF-κB p65 Phospho-Ser536 = test: NanoBiT cell-based immunoassay, phosphorylated p65 in MCF-7 cells; parameters: species or system human; conditions: for P-p65, Average: background subtracted, average of replicates; for P-p65, Raw data / P-p65, Subtract reagent background: single replicates
Method: as §1, §2, §3

| Compound | level of p65 (total NF-κB p65) | Total p65, Average (total NF-κB p65; TNF + Ikk16) | Total p65, Raw data (total NF-κB p65; TNF + Ikk16) | Total p65, Subtract reagent background (total NF-κB p65; TNF + Ikk16) | Total p65, Average (total NF-κB p65; substance alone) | Total p65, Raw data (total NF-κB p65; substance alone) | Total p65, Subtract reagent background (total NF-κB p65; substance alone) | TNFα-increased phosphorylation of p65 on serine 536 (NF-κB p65 Phospho-Ser536; MCF-7 cells, 10 µM 1 h, TNFα 50 ng per ml 10 min) | P-p65, Average (NF-κB p65 Phospho-Ser536; TNF + Ikk16) | P-p65, Raw data (NF-κB p65 Phospho-Ser536; TNF + Ikk16) | P-p65, Subtract reagent background (NF-κB p65 Phospho-Ser536; TNF + Ikk16) | P-p65, Average (NF-κB p65 Phospho-Ser536; substance alone) | P-p65, Raw data (NF-κB p65 Phospho-Ser536; substance alone) | P-p65, Subtract reagent background (NF-κB p65 Phospho-Ser536; substance alone) | Total p65, Raw data (total NF-κB p65; substance alone, listed as TNF) | Total p65, Subtract reagent background (total NF-κB p65; substance alone, listed as TNF) | P-p65, Raw data (NF-κB p65 Phospho-Ser536; substance alone, listed as TNF) | P-p65, Subtract reagent background (NF-κB p65 Phospho-Ser536; substance alone, listed as TNF) |
| --- | --- | --- | --- | --- | --- | --- | --- | --- | --- | --- | --- | --- | --- | --- | --- | --- | --- | --- |
| O=C(c1ccc(Nc2nccc(-c3cc4ccccc4s3)n2)cc1)N1CCC(N2CCCC2)CC1 [IKK16] | not affected | 726760 | 756500 and 718200 and 763300 | 744060 and 737260 and 698960 | 788717 | 811900 and 763300 and 846900 | 828250 and 793250 and 744650 | inhibited | 4467 | 22920 and 23320 and 23680 | 4080 and 4480 and 4840 | 3920 | 22430 and 21780 and 21730 | 4370 and 3720 and 3670 | – | – | – | – |
| TNFα | not affected | – | – | – | 887990 | – | – | – | – | – | – | 154463 | – | – | 913100 and 869100 and 947500 | 925590 and 891190 and 847190 | 167400 and 177100 and 183300 | 145930 and 155630 and 161830 |
